Laboratory results from ChEMBL document CHEMBL5465560, “Selectivity Literature for EUbOPEN Chemogenomic Library” (2024).

What was measured:
[1] = target: Macrophage colony-stimulating factor 1 receptor (Homo sapiens) (UniProt P07333); test: Selectivity interaction (KinomeScan (DiscoverX)) EUB0001049a CSF1R; settings: at 1 µM
[2] = tested on: Mast/stem cell growth factor receptor Kit (Homo sapiens), P10721 [V559D,V654A]; test: (§1) Selectivity interaction (Ambit KINOMEscan and KiNATiv profiling in Jurkat cells) EUB0000090b KIT; type: cell-based; settings: at 1 µM
[3] = tested on: Mast/stem cell growth factor receptor Kit (Homo sapiens), P10721 [L576P]; test: as §1; type: cell-based; settings: at 1 µM
[4] = tested on: Mast/stem cell growth factor receptor Kit (Homo sapiens), P10721 [V559D,T670I]; test: as §1; type: cell-based; settings: at 1 µM
[5] = tested on: Mast/stem cell growth factor receptor Kit (Homo sapiens), P10721 [D816H]; test: as §1; type: cell-based; settings: at 1 µM
[6] = tested on: Mast/stem cell growth factor receptor Kit (Homo sapiens), P10721 [D816V]; test: as §1; type: cell-based; settings: at 1 µM
[7] = tested on: Mast/stem cell growth factor receptor Kit (Homo sapiens), P10721 [V559D]; test: as §1; type: cell-based; settings: at 1 µM
[8] = target: Mast/stem cell growth factor receptor Kit (Homo sapiens, UniProt P10721); test: as §1; type: cell-based; settings: at 1 µM
[9] = tested on: Mast/stem cell growth factor receptor Kit (Homo sapiens), P10721 [A829P]; test: as §1; type: cell-based; settings: at 1 µM
[10] = target: T1, Mitogen-activated protein kinase 12 (Homo sapiens) (UniProt P53778); settings: at 10 µM
T1 sequence (whole entry): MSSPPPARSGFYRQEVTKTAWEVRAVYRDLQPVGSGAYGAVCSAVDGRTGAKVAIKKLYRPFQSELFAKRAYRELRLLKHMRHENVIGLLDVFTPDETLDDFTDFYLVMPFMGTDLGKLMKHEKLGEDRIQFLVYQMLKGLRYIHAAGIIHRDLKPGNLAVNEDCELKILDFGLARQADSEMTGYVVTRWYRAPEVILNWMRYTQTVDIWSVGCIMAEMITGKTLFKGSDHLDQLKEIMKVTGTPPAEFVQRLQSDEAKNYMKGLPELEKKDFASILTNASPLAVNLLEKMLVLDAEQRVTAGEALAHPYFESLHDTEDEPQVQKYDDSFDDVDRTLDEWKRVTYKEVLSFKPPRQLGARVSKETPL

[11] = target: T2, Dual specificity mitogen-activated protein kinase kinase 6 (Homo sapiens) (UniProt P52564); test: Selectivity interaction (KinomeScan (DiscoverX)) EUB0000229b MAP2K6; settings: at 10 µM
T2 sequence (whole entry): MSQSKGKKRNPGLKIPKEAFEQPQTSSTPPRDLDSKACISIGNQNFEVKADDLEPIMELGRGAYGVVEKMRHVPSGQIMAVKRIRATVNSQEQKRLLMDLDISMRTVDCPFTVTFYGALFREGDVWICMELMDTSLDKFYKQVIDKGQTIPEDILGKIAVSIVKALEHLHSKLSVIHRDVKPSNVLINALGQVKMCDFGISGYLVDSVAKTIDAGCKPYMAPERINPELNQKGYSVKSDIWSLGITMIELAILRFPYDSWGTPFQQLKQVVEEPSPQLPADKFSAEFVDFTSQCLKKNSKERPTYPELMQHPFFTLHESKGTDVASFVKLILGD

[12] = tested on: Receptor-type tyrosine-protein kinase FLT3 (Homo sapiens), P36888 [UNDEFINED MUTATION]; test: Selectivity interaction (KinomeScan (DiscoverX)) EUB0000229b FLT3; settings: at 1 µM
[13] = target: T3, Serine/threonine-protein kinase LATS1 (Homo sapiens) (UniProt O95835); test: Selectivity interaction (KinomeScan (DiscoverX)) EUB0000092b LATS1; settings: at 10 µM
T3 sequence (whole entry): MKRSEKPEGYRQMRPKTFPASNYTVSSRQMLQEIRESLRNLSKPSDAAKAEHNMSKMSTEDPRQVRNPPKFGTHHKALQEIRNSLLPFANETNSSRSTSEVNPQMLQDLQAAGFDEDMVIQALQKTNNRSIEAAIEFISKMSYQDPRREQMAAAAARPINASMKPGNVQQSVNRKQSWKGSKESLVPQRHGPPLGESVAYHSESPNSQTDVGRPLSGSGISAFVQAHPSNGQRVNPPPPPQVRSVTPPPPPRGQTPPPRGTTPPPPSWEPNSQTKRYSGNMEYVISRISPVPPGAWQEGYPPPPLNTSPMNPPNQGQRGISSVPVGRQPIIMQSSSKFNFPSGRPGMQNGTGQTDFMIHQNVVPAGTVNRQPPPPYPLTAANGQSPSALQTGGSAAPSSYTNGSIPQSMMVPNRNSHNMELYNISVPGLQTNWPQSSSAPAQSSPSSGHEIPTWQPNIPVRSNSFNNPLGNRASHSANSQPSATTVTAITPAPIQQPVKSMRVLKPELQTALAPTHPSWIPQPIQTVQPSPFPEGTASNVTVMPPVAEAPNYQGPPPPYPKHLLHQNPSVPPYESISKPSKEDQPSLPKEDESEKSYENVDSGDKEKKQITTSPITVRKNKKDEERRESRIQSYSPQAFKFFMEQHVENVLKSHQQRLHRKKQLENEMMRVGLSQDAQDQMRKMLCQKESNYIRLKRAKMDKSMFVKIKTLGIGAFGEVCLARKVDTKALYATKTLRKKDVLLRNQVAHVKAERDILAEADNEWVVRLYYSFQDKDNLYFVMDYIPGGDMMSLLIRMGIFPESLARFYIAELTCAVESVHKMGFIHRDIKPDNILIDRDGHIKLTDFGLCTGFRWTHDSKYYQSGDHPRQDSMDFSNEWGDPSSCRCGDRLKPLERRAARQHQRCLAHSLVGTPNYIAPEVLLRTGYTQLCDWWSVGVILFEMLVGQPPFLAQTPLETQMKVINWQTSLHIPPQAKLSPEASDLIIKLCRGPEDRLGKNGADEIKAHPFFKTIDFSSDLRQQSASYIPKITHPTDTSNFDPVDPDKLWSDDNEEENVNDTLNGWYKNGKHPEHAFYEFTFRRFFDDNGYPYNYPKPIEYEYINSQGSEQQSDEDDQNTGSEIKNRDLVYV

[14] = target: TGF-beta receptor type-2 (Homo sapiens) (UniProt P37173); test: Selectivity interaction (KinomeScan (DiscoverX)) EUB0000655a TGFBR2; settings: at 10 µM
[15] = target: Serine/threonine-protein kinase 16 (Homo sapiens, UniProt O75716); test: Selectivity interaction (KinomeScan (DiscoverX)) EUB0000618a STK16; settings: at 10 µM
[16] = target: SRSF protein kinase 3 (Homo sapiens) (UniProt Q9UPE1); test: Selectivity interaction (SelectScreen profiling (Invitrogen)) EUB0000607a SRPK3; settings: at 2 µM
[17] = target: Serine/threonine-protein kinase Nek7 (Homo sapiens) (UniProt Q8TDX7); test: Selectivity interaction (SelectScreen profiling (Invitrogen)) EUB0000607a NEK7; settings: at 2 µM
[18] = target: Tyrosine-protein kinase JAK2 (Homo sapiens, UniProt O60674); test: Selectivity interaction (KinomeScan (DiscoverX)) EUB0000666a JAK2; settings: at 10 µM

Chain of Mast/stem cell growth factor receptor Kit (Homo sapiens), P10721 [V559D,T670I] (P10721 whole entry V559D/T670I): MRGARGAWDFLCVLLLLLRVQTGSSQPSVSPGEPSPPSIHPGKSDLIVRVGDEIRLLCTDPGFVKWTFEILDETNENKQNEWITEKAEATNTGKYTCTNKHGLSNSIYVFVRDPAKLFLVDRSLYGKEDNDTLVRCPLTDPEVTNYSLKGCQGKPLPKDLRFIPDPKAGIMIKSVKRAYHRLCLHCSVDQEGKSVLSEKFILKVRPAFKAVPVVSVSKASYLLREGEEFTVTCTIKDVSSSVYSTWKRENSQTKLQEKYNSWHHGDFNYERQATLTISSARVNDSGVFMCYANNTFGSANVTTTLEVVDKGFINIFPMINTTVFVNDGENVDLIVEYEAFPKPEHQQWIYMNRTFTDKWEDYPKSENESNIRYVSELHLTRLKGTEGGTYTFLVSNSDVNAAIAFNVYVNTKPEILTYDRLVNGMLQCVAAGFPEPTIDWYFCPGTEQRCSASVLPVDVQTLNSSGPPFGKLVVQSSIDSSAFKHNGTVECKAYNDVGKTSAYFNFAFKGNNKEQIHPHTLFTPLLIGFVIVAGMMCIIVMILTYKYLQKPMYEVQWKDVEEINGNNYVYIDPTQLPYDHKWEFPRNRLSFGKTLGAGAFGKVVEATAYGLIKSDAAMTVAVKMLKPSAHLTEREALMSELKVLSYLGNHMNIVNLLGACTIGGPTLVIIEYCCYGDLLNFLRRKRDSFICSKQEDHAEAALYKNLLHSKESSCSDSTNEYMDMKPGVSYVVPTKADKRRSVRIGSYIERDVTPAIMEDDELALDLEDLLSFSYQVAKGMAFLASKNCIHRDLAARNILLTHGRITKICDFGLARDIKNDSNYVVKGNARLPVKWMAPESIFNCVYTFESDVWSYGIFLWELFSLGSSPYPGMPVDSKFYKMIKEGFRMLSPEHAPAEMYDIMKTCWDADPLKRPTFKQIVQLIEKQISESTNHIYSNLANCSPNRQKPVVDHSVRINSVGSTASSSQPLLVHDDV
Chain of Serine/threonine-protein kinase Nek7 (Homo sapiens) (Q8TDX7 whole entry, looked up): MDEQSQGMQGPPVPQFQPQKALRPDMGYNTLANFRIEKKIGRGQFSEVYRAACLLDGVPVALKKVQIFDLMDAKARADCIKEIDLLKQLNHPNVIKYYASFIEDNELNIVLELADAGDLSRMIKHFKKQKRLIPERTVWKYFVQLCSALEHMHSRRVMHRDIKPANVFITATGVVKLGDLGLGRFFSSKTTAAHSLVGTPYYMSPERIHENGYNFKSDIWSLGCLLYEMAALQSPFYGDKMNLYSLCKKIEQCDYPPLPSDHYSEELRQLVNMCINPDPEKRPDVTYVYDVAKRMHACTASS
Chain of Mast/stem cell growth factor receptor Kit (Homo sapiens), P10721 [A829P] (P10721 whole entry A829P): as the sequence (P10721 whole entry V559D/T670I) above, with D559V, I670T, A829P counted along it
Chain of Mast/stem cell growth factor receptor Kit (Homo sapiens), P10721 [V559D,V654A] (P10721 whole entry V559D/V654A): as the sequence (P10721 whole entry V559D/T670I) above, with V654A, I670T counted along it
Chain of Mast/stem cell growth factor receptor Kit (Homo sapiens), P10721 [D816V] (P10721 whole entry D816V): as the sequence (P10721 whole entry V559D/T670I) above, with D559V, I670T, D816V counted along it
Chain of SRSF protein kinase 3 (Homo sapiens) (Q9UPE1 whole entry): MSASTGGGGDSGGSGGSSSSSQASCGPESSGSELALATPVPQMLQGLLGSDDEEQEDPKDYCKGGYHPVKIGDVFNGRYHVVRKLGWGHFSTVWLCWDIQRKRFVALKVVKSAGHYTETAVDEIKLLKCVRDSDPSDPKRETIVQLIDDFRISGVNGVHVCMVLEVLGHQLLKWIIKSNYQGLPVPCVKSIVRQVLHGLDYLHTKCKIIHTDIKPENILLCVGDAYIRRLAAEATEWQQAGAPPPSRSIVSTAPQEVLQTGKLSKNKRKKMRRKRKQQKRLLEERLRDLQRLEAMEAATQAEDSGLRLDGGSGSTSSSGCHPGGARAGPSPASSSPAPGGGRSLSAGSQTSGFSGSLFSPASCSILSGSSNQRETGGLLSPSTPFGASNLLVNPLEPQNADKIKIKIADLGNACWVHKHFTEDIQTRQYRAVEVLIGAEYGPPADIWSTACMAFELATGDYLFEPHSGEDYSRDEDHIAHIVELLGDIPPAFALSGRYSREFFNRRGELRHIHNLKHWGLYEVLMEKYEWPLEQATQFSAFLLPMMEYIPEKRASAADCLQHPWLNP
Chain of Serine/threonine-protein kinase 16 (O75716 whole entry): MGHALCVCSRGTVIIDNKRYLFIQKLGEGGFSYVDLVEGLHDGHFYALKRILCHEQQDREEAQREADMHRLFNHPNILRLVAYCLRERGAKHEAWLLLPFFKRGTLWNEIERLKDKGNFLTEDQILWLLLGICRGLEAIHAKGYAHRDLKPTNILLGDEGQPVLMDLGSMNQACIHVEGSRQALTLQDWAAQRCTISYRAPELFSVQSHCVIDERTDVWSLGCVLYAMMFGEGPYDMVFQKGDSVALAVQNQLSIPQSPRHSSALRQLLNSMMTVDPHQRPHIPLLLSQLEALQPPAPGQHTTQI

COc1cc(Nc2nc(C)cc(-c3cnn4nc(OC)ccc34)n2)cc(C(F)(F)F)c1 was tested, and the % of control [1] was 100%.

CN(C)C/C=C/C(=O)Nc1ccc(C(=O)N2CCCC(Nc3ncc(Cl)c(-c4c[nH]c5ccccc45)n3)C2)cc1 (stereo not drawn) showed a % of control [2] of 74%, a % of control [3] of 82% and a % of control [4] of 95%. It also gave a % of control [5] of 76%, a % of control [6] of 92% and a % of control [7] of 82%. The % of control [8] was 93% and the % of control [9] was 75%.

CCN(CC)CCCCNc1ncc2cc(-c3cc(OC)cc(OC)c3)c(NC(=O)NC(C)(C)C)nc2n1 was tested, and the % of control [10] was 100%.

For COc1cc(N(C)c2ccnc3ccc(C(F)(F)F)cc23)cc(OC)c1OC, the % binding [11] was 75% and the % binding [12] was 93%.

CCC(=O)N1CCN(c2ccc(-n3c(=O)ccc4cnc5ccc(-c6cnc7ccccc7c6)cc5c43)cc2C(F)(F)F)CC1 gave a % of control [13] of 100%.

For CN(C)CCOc1ccc(-c2nc(-c3ccncc3)c(-c3ccc4c(c3)CC/C4=N\O)[nH]2)cc1, the % of control [14] was 44%.

For O[C@H]1CC[C@H](Nc2ncc3nc(Nc4c(F)cc(F)cc4F)n([C@H]4CCOC4)c3n2)CC1, the % of control [15] was 60%.

CNC(=O)Nc1ccc(-c2nc(N3CC4CCC(C3)O4)c3cnn(C4CCC5(CC4)OCCO5)c3n2)cc1 gave a % of inhibition [16] of 6% and a % of inhibition [17] of -3%.

Compound O=C(NOC[C@H](O)CO)c1ccc(F)c(F)c1Nc1ccc(I)cc1F has a % of control [18] of 100%.
